Measured values: the supplement of paper PMC11451515

Tested on: SEM cells
Test: cell viability relative to DMSO control; higher = less cytotoxic
Settings: 48 h
Outline: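 Library compounds in DMSO were pin-dosed in an 11-point threefold series (47 μM to 0.79 nM) onto leukemia cells in 1536-well plates (5 μl). Plates held 500 cells/well of NOMO1 or SEM or 1000 cells/well of P12-Ichikawa, each adapted for at least four passages in each medium. Luminescence was read with CellTiter-Glo One after 48 h at 37°C. Viability means the per-plate percentage relative to DMSO wells, using cell-free wells as background.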

[1] = HPLM + 10% dialyzed FBS, 0.000781 µM
[2] = HPLM + 10% dialyzed FBS, 0.00234 µM
[3] = HPLM + 10% dialyzed FBS, 0.00702 µM
[4] = HPLM + 10% dialyzed FBS, 0.0211 µM
[5] = HPLM + 10% dialyzed FBS, 0.0632 µM
[6] = HPLM + 10% dialyzed FBS, 0.19 µM
[7] = HPLM + 10% dialyzed FBS, 0.569 µM
[8] = HPLM + 10% dialyzed FBS, 1.71 µM
[9] = HPLM + 10% dialyzed FBS, 5.12 µM
[10] = HPLM + 10% dialyzed FBS, 15.4 µM
[11] = HPLM + 10% dialyzed FBS, 46.1 µM
[12] = RPMI 5 mM glucose + 10% FBS, 0.000781 µM
[13] = RPMI 5 mM glucose + 10% FBS, 0.00234 µM
[14] = RPMI 5 mM glucose + 10% FBS, 0.00702 µM
[15] = RPMI 5 mM glucose + 10% FBS, 0.0211 µM
[16] = RPMI 5 mM glucose + 10% FBS, 0.0632 µM
[17] = RPMI 5 mM glucose + 10% FBS, 0.19 µM
[18] = RPMI 5 mM glucose + 10% FBS, 0.569 µM
[19] = RPMI 5 mM glucose + 10% FBS, 1.71 µM
[20] = RPMI 5 mM glucose + 10% FBS, 5.12 µM
[21] = RPMI 5 mM glucose + 10% FBS, 15.4 µM
[22] = RPMI 5 mM glucose + 10% FBS, 46.1 µM
[23] = RPMI 5 mM glucose + 10% dialyzed FBS, 0.000781 µM
[24] = RPMI 5 mM glucose + 10% dialyzed FBS, 0.00234 µM
[25] = RPMI 5 mM glucose + 10% dialyzed FBS, 0.00702 µM
[26] = RPMI 5 mM glucose + 10% dialyzed FBS, 0.0211 µM
[27] = RPMI 5 mM glucose + 10% dialyzed FBS, 0.0632 µM
[28] = RPMI 5 mM glucose + 10% dialyzed FBS, 0.19 µM
[29] = RPMI 5 mM glucose + 10% dialyzed FBS, 0.569 µM
[30] = RPMI 5 mM glucose + 10% dialyzed FBS, 1.71 µM
[31] = RPMI 5 mM glucose + 10% dialyzed FBS, 5.12 µM
[32] = RPMI 5 mM glucose + 10% dialyzed FBS, 15.4 µM
[33] = RPMI 5 mM glucose + 10% dialyzed FBS, 46.1 µM

SMILES | cell viability [1] | cell viability [2] | cell viability [3] | cell viability [4] | cell viability [5] | cell viability [6] | cell viability [7] | cell viability [8] | cell viability [9] | cell viability [10] | cell viability [11] | cell viability [12] | cell viability [13] | cell viability [14] | cell viability [15] | cell viability [16] | cell viability [17] | cell viability [18] | cell viability [19] | cell viability [20] | cell viability [21] | cell viability [22] | cell viability [23] | cell viability [24] | cell viability [25] | cell viability [26] | cell viability [27] | cell viability [28] | cell viability [29] | cell viability [30] | cell viability [31] | cell viability [32] | cell viability [33]
OC(CCN1CCCCC1)(C2CC\3CC2\C=C3)C4=CC=CC=C4 (configuration not stated) | 102% | 110% | 113% | 97.7% | 123% | 120% | 121% | 94.8% | 118% | 129% | 126% | 94.9% | 126% | 115% | 91% | 122% | 119% | 116% | 107% | 123% | 134% | 121% | 104% | 104% | 113% | 70.2% | 129% | 113% | 127% | 120% | 132% | 136% | 131%
Cc1cc(-c2nnc3n2CCCCC3)c(C)n1-c1ccccc1 | 110% | 116% | 115% | 123% | 117% | 118% | 120% | 119% | 98.7% | 117% | 115% | 53.2% | 124% | 103% | 107% | 95.6% | 107% | 124% | 126% | 109% | 115% | 102% | 113% | 114% | 140% | 131% | 95.3% | 127% | 136% | 135% | 114% | 126% | 107%
CCNC(=O)Nc1ccc(-c2nc3c(c(N4CCOC[C@@H]4C)n2)CCN(C2COC2)C3)cc1 | 96.1% | 116% | 111% | 113% | 108% | 87.7% | 98.9% | 57.7% | 43.5% | 31.7% | 32.1% | 105% | 105% | 114% | 108% | 113% | 95.1% | 87.8% | 55.7% | 41.1% | 27% | 20.9% | 119% | 125% | 104% | 120% | 121% | 109% | 102% | 79.2% | 51.4% | 41% | 36.1%
O=C(O)CSCC(=O)NC1CCSC1=O (configuration not stated) | 77.6% | 98.4% | 91.5% | 80.6% | 99.3% | 91.9% | 112% | 102% | 100% | 89.5% | 92.6% | 73.3% | 87.6% | 96.4% | 92.9% | 107% | 113% | 111% | 104% | 101% | 97% | 98.8% | 83.4% | 98.4% | 100% | 100% | 115% | 105% | 107% | 108% | 118% | 104% | 94.9%
